Test results taken from patent publication US8785430B2, “Compound that can inhibit UBC13-UEV interactions, pharmaceutical compositions and therapeutic uses” (Consejo Superior de Investigaciones Cientificas, priority 2006, dated 2014).

Legend:
UBC13-UEV1 interaction = target: T1, UBC13-UEV1 interaction (Homo sapiens, UniProt P61088); test: Two-hybrid assay in yeasts for the UBC13-UEV1 interaction (β-galactosidase); type: cell-based; settings: read-out: inhibition of the interaction between UBC13 and UEV1
T1 construct: expressed in transfected cells; host or cells: Saccharomyces cerevisiae strain AH109
T1 sequence (P61088 1-152): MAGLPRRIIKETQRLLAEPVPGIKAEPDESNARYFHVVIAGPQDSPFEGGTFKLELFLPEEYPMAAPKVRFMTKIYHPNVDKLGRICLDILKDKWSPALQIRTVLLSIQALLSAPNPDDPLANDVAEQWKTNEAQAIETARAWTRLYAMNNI
Excerpt: The interaction between UBC13 and UEV1 is detected by means of two-hybrid assays in yeast. The protein forms of UBC13 and UEV1 used in the following examples are of Homo sapiens. The UBC13 protein, also referred to as UBE2N (HUGO nomenclature) has the following identifiers: NCBI-GI: 4507793, UniProt: P61088 and [EC:6.3.2.19]. The UEV1 protein, also referred to as UBE2V1 (HUGO nomenclature), has the following identifiers: NCBI-GI: 73765546 and UniProt: {tilde under (O)}13404. In this assay, UBC13 is expressed as a fusion protein with the Gal4 DNA-binding domain (DBD-UBC13) from the plasmid pBD-UBC13, and UEV1 is expressed as a fusion protein with the Gal4 transcriptional activation domain (AD-UEV1) from the plasmid pACT2-UEV1. Both plasmids are cotransfected in the Saccharomyces cerevisiae strain AH109, being grown on plates with […] without leucine or tryptophan, selecting only the colonies expressing […] for these two amino acids, i.e., those containing the two co-transfected plasmids. […]

[1] = system: transcriptional activity of NF-κB induced by TNFα; test: NF-κB luciferase reporter assay, stimulation by TNFα in HeLa cells; type: cell-based; settings: TNFα 10 ng/mL; for inhibition of the stimulation of the transcriptional activity of NF-κB induced by TNFα: HeLa cells, different concentrations
Experimental: To determine the activity of compounds Ia and Ib on the stimulation of the NFκ-B activity by TNFα, assays for inducing luciferase activity (determined with the Dual-Luciferase Reporter Assay System kit, Promega, catalog number E1910) generated by expression of the firefly (Photinus pyralis) luciferase gene directed by a promoter containing three recognition sites for NFκ-B were performed. To that end, HeLa cells were co-transfected with plasmid pRL-TK, encoding the Renilla reniformis Luciferase and being a transfection efficiency control, and plasmid prLUC, a plasmid which allows determining the transcriptional activity of NF-κB, using Fugene (Roche) as a transfection vehicle. 100,000 cells were seeded in 6-well plates (Costar). On the following day, the transfection complex was formed with 0.5 μg of each plasmid and 3 μl of Fugene for 15 minutes. The complex was added to the cells in Optimem medium (InVitrogen), and after 5 hours it was changed to complete medium (Dulbecco's Modified Eagle's Medium with 10% fetal bovine serum, 2 mM of glutamine, supplemented with penicillin and streptomycin), to which the compound Varubin (Ia) or Ib at different concentrations was added or not. On the following day, the cells were incubated with TNFα (10 ng/mL) for 4 hours, after which they were washed with phosphate buffered saline (PBS) and lysated with 250 μL of lysis buffer, following the manufacturer's (Promega) indications. 100 μL of luciferase reagent (LARII) were added to the lysate to measure the firefly luciferase activity, after which the reaction was stopped with 100 μL of stop buffer with Renilla reniformis luciferase substrate, this second activity being determined at that time. The firefly luciferase activity was standardized in relation to the Renilla luciferase activity. The values corresponding to cells transfected but not stimulated with TNFα were used as standardizers for the remaining experimental values. […]

Row | Compound | inhibition at 100 µM (UBC13-UEV1 interaction) [%] | inhibition of the stimulation of the transcriptional activity of NF-κB induced by TNFα [1] | inhibition at 100 µM ([1]; Homo sapiens, HeLa cells pre-incubated at 100 μM, read-out: inhibition of the activation of NF-κB by TNFα) [%]
1 | NC(=O)CN(CCc1ccccn1)C(=O)C1CC(=O)N(CCc2ccc(F)cc2)CC(=O)N1CCc1ccc(F)cc1 (centres unmarked) [Ia, N-aminocarbamoylmethyl-N-(2′-(2″pyridyl)ethyl)-1,4-bis[2′-(4″-fluorophenyl)ethyl]-3,7-dioxo-[1,4]diazepane-5-carboxamide] | ~60 | inhibits in a dose-dependent manner | ~50
2 | NC(=O)CN(CCc1ccccn1)C(=O)CC1C(=O)N(CCc2ccc(F)cc2)CC(=O)N1CCc1ccc(F)cc1 (centres unmarked) [Ib, 1,4-bis[2′-(4″-fluorophenyl)ethyl]-2-[N-aminocarbonylmethyl-N-(2′-(2″-pyridyl)ethyl)-carbonylmethyl]piperazine-3,6-dione] | ~40 | inhibits in a dose-dependent manner | –
